Series [1] deals with WA09 hES cells. The settings on record: for Teratogenicity Potential (μM) Cell Viability: human, 72 h.
The conditions of series [2]: therapeutic peak plasma in vivo concentration, human, cited from earlier work.
A short description of series [3]: Solubility in DMSO for stock solutions. On the procedure:
Phase I hES Cell Compound Exposure. hES cells were treated with a test compound at a single concentration equivalent to the compound's published therapeutic Cmax. […] This was done to ensure that enough cells were present at the time of sample collection to provide a signal for LC-HRMS analysis. For test compound exposure, all compound stock solutions, with the exception of valproic acid, were made with DMSO (Sigma-Aldrich). […] Each 96-well plate included media controls with and without test compound, 0.1% DMSO solvent control cells and cells exposed to a single concentration of eight different test compounds (FIG. 1A). Media controls were included on each plate to assess the impact of test compound on the sample matrix. hES cells were exposed to the test compound for 72 hours, with media and test compound replacement every 24 hours. Cells were monitored throughout the treatment period to ensure that no differentiation was occurring. After 72 hours of treatment, the spent media from the final 24-hour treatment period was collected and added to acetonitrile (Sigma-Aldrich, final acetonitrile concentration 40%), to halt metabolic processes and precipitate proteins from solution. Individual wells from each 96-well plate were collected and analyzed as separate samples. These samples were then stored at −80° C. until prepared for LC-HRMS analysis. Cell viability was assessed using the CellTiter-Fluor Cell Viability Assay as per the manufacturer's instructions (Promega, Madison, Wis.). […]
Phase 2 hES Cell Compound Exposure. […] Cell viability was assessed using the CellTiter-Fluor Cell Viability Assay. A quality control step was included with criteria that the CV of the measured viability RFU of the DMSO control cells could not exceed 10% for a plate to undergo LC-HRMS analysis. […]

Series [4] relates to hES cells. The series can be described thus: ADMA/cystine ratio simplified predictive model in hES cell spent media. The format is cell-based, human. The note with it: single dose per treatment; ratios less than 0.9 indicate teratogenicity. The procedure, abridged:
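hES cell spent media were analysed for ADMA and cystine, each normalized to the DMSO reference, and their ratio formed. Each value is the median of independent blocks (6 reps each). A ratio cutoff of 0.9 classifies teratogens versus non-teratogens.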

The test system of another series is Humans. The note with it: cited from earlier work; for Humans (known human developmental toxicity): training and test set; for Known Effect: validation and test set treatments of Example 2.
The subject of series [5] is hES cells. The series can be described thus: devTOX computational model predictions (Version 2.0, Version 2.1) from hES cell metabolomics. The note with it: single dose per treatment (Dose column). Type of series: cell-based, human. The text has this:
The selection process weighted the predictive capacity of a feature, overall intensity, and peak shape to identify very well behaved features/metabolites that could be measured by targeted LC-MS or even by other detection systems.
This simplified model is based on a ratio of the reference treatment (DMSO) normalized values of ADMA and cystine.

For series [6], the system named is WA09 hES cells. The series can be described thus: Phase 2 targeted biomarker assay, ornithine/cystine ratio, 9-point dose response. The gist of the method:
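WA09 hES cells (≤ passage 40), plated as single cells at 100,000/well on Matrigel in mTeSR1 with 10 μM Y27632, dosed 24 h later with nine 3-fold dilutions, 0.04–300 μM, 0.1% DMSO, for 72 h. Final-24 h spent medium, spiked with 13C6-arginine and filtered (<10 kDa), analysed by LC-HRMS; viability by CellTiter-Fluor.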

The subject of a further series is rat. The note with it: cited from earlier work.
In a further series the test system is Rodent. The note with it: training and test set; cited from earlier work.
A further series concerns Rabbit. The settings on record: training and test set; cited from earlier work.
For series [7] the following is noted: summarized from TERIS and Briggs et al. 2011, cited from earlier work.
The subject of the next series is zebrafish. The settings on record: training and test set; weak/moderate and strong teratogens both labeled teratogen; cited from earlier work.
For series [8], the system named is mouse embryonic stem cell. The note with it: training and test set; weak/moderate and strong teratogens both labeled teratogen; cited from earlier work.
In a further series the test system is rat whole embryo. The note with it: training and test set; weak/moderate and strong teratogens both labeled teratogen; cited from earlier work.

Each structure is given as a SMILES string. Where two headings read alike, the source gives them in different places.

As to `Nc1nc2ncc(CNc3ccc(C(=O)N[C@@H](CCC(=O)O)C(=O)O)cc3)nc2c(=O)[nH]1` [Folic Acid], in the series with WA09 hES cells [1], the “Viability Prediction” value is “NON” and the “Teratogenicity Potential (μM) Cell Viability” value was over 300 µM. Moreover, the Cmax in series [2] (training set) is 0.035 µM. The “Solubility in DMSO (words)” value in series [3] is given as “completely insoluble in DMSO”. The “Model Predictions ADMA/Cystine” value in the series with hES cells [4] is on record as “Non”. In addition, the “Humans (known human developmental toxicity)” value with Humans was “NON”. Further, in the series on hES cells [5], the “Model Predictions Version 2.0” value is given as “Ter” and the “Model Predictions Version 2.1” value is recorded as “Non”. The “Targeted Biomarker Assay prediction” value in the series on WA09 hES cells [6] is reported as “NON”.

Take `CS(=O)(=O)CCNCc1ccc(-c2ccc3ncnc(Nc4ccc(OCc5cccc(F)c5)c(Cl)c4)c3c2)o1` [Lapatinib]: in the series on WA09 hES cells [1], the “Viability Prediction” value is “NON” and the “Teratogenicity Potential (μM) Cell Viability” value stood at 20.8 µM. Moreover, the “Exposure level causing rat pup mortality relative to human clinical exposure based on AUC” value in the series with rat (given during organogenesis, Briggs et al. 2011) is “about 3.3 times”. Also, in [2] (test set), the Cmax is 4.2 µM. For the same compound, the Rodent prediction entry with Rodent is “TER”. Moreover, in the series on Humans, the “Humans (known human developmental toxicity)” value is “TER”. Further, in the series on Rabbit, the Rabbit prediction result is “TER”. Also, in the series with WA09 hES cells [6], the “O/C Ratio Prediction” value is recorded as “NON” and the “Targeted Biomarker Assay prediction” value is “NON”. The “Teratogenicity Potential (μM) O/C Ratio” value in the series with WA09 hES cells [6] (human, 72 h) was 29 µM. Further, the “Preclinical in vivo and known human developmental effects” value (from here on “Preclinical”) in series [7] (test set compounds) is given as “Skeletal, embryo toxicity^c”.

Turning to `CC[C@H](C)C(=O)O[C@H]1C[C@@H](C)C=C2C=C[C@H](C)[C@H](CC[C@@H]3C[C@@H](O)CC(=O)O3)[C@H]21` [Lovastatin], in the series on WA09 hES cells [1], the “Viability Prediction” value is “NON” and the “Teratogenicity Potential (μM) Cell Viability” value was found to be 4.1 µM. Besides, in the series on rat (in vivo, 100 mg/kg/day), the peak concentration (Cmax) is about 1.5 µM. The “lowest observed adverse effect level (LOAEL)” value in the series on rat (in vivo) is 100 mg/kg body weight per day. For the same compound, in series [2] (test set), the Cmax is 0.02 µM. The Rodent prediction result in the series with Rodent is “TER”. The ZET prediction entry with zebrafish is on record as “TER^d”. The mEST prediction entry in series [8] was “TER^m”. Moreover, the “Humans (known human developmental toxicity)” value with Humans was “TER”. In addition, in the series with Rabbit, the Rabbit prediction entry is reported as “NON”. For the same compound, in the series with WA09 hES cells [6], the “O/C Ratio Prediction” value is listed as “NON” and the “Targeted Biomarker Assay prediction” value is “NON”. For the same compound, in the series with WA09 hES cells [6] (human, 72 h), the “Teratogenicity Potential (μM) O/C Ratio” value was found to be 1.3 µM. Moreover, in series [7] (test set compounds), the “Preclinical” value is reported as “Skeletal, embryo toxicity^c”.

In the case of `CC1=C(/C=C/C(C)=C/C=C/C(C)=C/CO)C(C)(C)CCC1` [Retinol], in the series with WA09 hES cells [1], the “Viability Prediction” value was “NON” and the “Teratogenicity Potential (μM) Cell Viability” value stood at 42.8 µM. For the same compound, the maximum concentration (Cmax) in series [2] (training set) was 2.4 µM. For the same compound, the Rodent prediction result in the series with Rodent is given as “TER”. Further, the “Model Predictions ADMA/Cystine” value with hES cells [4] is recorded as “Non”. Moreover, the ZET prediction entry in the series with zebrafish is reported as “TER^c,n”. In addition, the mEST prediction result in series [8] is “NON^p”. The “Dose shown to cause malformations” value with Humans (experimental animals and humans, Teratology Society 1987) is given as > 25,000 IU/day. Further, the “Dose without adverse effect on the developing fetus (FDA maximum RDA)” value in the series with Humans (human pregnancy) was ≤ 8,000 IU. For the same compound, in the series on Humans, the “Humans (known human developmental toxicity)” value is “NON” and the “Known Effect” value was “Non”. In the series on hES cells [5], the “Model Predictions Version 2.0” value is reported as “Ter” and the “Model Predictions Version 2.1” value is listed as “Non”. The WEC prediction entry with rat whole embryo is “TER^q”. The Rabbit prediction entry in the series with Rabbit is listed as “TER”. In addition, in the series on WA09 hES cells [6], the “Change in the o/c ratio, also relative to cytotoxicity” value is listed as “o/c ratio is directly correlated with cell death”; the “Classification by o/c ratio in the targeted biomarker assay” value is “correctly classify”; the “O/C Ratio Prediction” value is listed as “NON”; the “Targeted Biomarker Assay prediction” value is on record as “NON”. Further, in the series with WA09 hES cells [6] (human, 72 h), the “Exposure level of o/c ratio change/cell death relative to levels normally encountered by humans” value is about 20 times and the “Teratogenicity Potential (μM) O/C Ratio” value came out at 42.2 µM. Moreover, the “Preclinical” value in series [7] (training set compounds) is “Low Doses: None; High”.

As for `O=C1NS(=O)(=O)c2ccccc21` [Saccharin], in the series with WA09 hES cells [1], the “Viability Prediction” value is “NON” and the “Teratogenicity Potential (μM) Cell Viability” value was over 300 µM. Moreover, the peak concentration (Cmax) in [2] (training set) was 1.4 µM. For the same compound, the Rodent prediction result with Rodent is reported as “NON”. Also, the “Model Predictions ADMA/Cystine” value with hES cells [4] is on record as “Non”. The ZET prediction entry in the series on zebrafish is recorded as “NON^c,e”. Moreover, the mEST prediction result in series [8] is “NON^b,i”. Also, in the series with Humans, the “Humans (known human developmental toxicity)” value is listed as “NON” and the “Known Effect” value is “Non”. In the series with hES cells [5], the “Model Predictions Version 2.0” value is recorded as “Non” and the “Model Predictions Version 2.1” value was “Non”. For the same compound, the WEC prediction result in the series on rat whole embryo is recorded as “NON^j”. For the same compound, the Rabbit prediction result in the series with Rabbit is recorded as “NON”. Moreover, in the series with WA09 hES cells [6], the “Change in the o/c ratio, also relative to cytotoxicity” value is given as “no change in the o/c ratio or viability”; the “O/C Ratio Prediction” value is “NON”; the “Targeted Biomarker Assay prediction” value is listed as “NON”. Besides, the “Teratogenicity Potential (μM) O/C Ratio” value with WA09 hES cells [6] (human, 72 h) is over 300 µM. Further, the “Preclinical” value in series [7] (training set compounds) is recorded as “None”.

As to `CCCC(CCC)C(=O)O` [Valproic Acid], in the series with WA09 hES cells [1], the “Viability Prediction” value was “NON” and the “Teratogenicity Potential (μM) Cell Viability” value was found to be 1113.7 µM. The maximum concentration (Cmax) in series [2] (training set) is 1000 µM. In addition, the “Solubility in DMSO (words)” value in [3] (at the stock concentrations used in this study, listed as Valproic acid) is “insoluble in DMSO”. In addition, in [3] (at the stock concentrations used in this study, listed as valproic acid), the “Solubility in DMSO (words)” value is recorded as “completely insoluble in DMSO”. Besides, the Rodent prediction result in the series on Rodent is recorded as “TER”. Further, the “Model Predictions ADMA/Cystine” value with hES cells [4] is listed as “Ter”. Moreover, in the series with zebrafish, the ZET prediction entry was “TER^e,n”. The mEST prediction entry in series [8] is “TER^b,i”. For the same compound, in the series with Humans, the “Humans (known human developmental toxicity)” value is “TER” and the “Known Effect” value is listed as “Ter”. In the series with hES cells [5], the “Model Predictions Version 2.0” value is on record as “Ter” and the “Model Predictions Version 2.1” value is recorded as “Ter”. For the same compound, the WEC prediction entry in the series on rat whole embryo was “TER^f,j”. Moreover, the Rabbit prediction entry with Rabbit is recorded as “TER^u”. In the series on WA09 hES cells [6], the “Change in the o/c ratio, also relative to cytotoxicity” value was “marked change in the o/c ratio at exposure levels well before cytotoxicity is observed”; the “O/C Ratio Prediction” value is “TER”; the “Targeted Biomarker Assay prediction” value is on record as “TER”. Also, in the series with WA09 hES cells [6] (human, 72 h), the “Teratogenicity Potential (μM) O/C Ratio” value was determined as 90.8 µM. The “Preclinical” value in series [7] (training set compounds) is reported as “Central nervous system,”.

Source of the values: patent US10209240B2, “Predicting human developmental toxicity of pharmaceuticals using human stem-like cells and metabolomic ratios” (STEMINA BIOMARKER DISCOVERY, INC., priority 2012, dated 2019).
